From US11731986B2 (Sanford Burnham Prebys Medical Discovery Institute, priority 2017, dated 2023)

Target: T1, human LMPTP-A (Homo sapiens, UniProt P24666)
T1 sequence (P24666 1-158): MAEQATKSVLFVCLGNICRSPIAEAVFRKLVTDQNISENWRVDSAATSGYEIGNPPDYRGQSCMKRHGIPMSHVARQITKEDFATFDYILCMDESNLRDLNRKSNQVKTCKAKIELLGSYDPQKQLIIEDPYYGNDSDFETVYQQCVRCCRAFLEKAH
Test: Enzyme Assay of Inhibition of LMPTP-A (phosphatase assay, OMFP or pNPP substrate)
Format: biochemical
Conditions: Bis-Tris pH 6.0, 37° C.
Procedure, shortened: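 Buffer 50 mM Bis-Tris pH 6.0, 1 mM DTT, 0.01% Triton X-100, 37 °C; OMFP read continuously (485/525 nm) or pNPP stopped with NaOH, 405 nm. IC50 from concentration vs % activity. Selectivity: 40 μM compound with 0.4 mM OMFP or 5 mM pNPP; reversibility: 50 nM enzyme, 10 μM compound, 5 min, 100× dilution.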

Row | SMILES | IC50
1 | CN1CCC(NC(=O)c2ccc(-c3cc(NC4CCN(C)C4)c4cnccc4n3)cc2)CC1 (centres unmarked) [N-(1-Methylpiperidin-4-yl)-4-(4-((1-methylpyrrolidin-3-yl)amino)-1,6-naphthyridin-2-yl)benzamide] | 1000 to 20000 nM
2 | CN1CCCN(CCNC(=O)CCc2ccc(-c3cc(NCCCN4CCCCC4)c4cnccc4n3)cc2)CC1 [N-(2-(4-Methyl-1,4-diazepan-1-yl)ethyl)-3-(4-(4-(3-(piperidin-1-yl)propylamino)-1,6-naphthyridin-2-yl)phenyl)propanamide] | ≤ 1000 nM
3 | CN1CCC(CNC(=O)CCc2ccc(-c3cc(NCCCN4CCCCC4)c4cnccc4n3)cc2)CC1 [N-((1-Methylpiperidin-4-yl)methyl)-3-(4-(4-(3-(piperidin-1-yl)propylamino)-1,6-naphthyridin-2-yl)phenyl)propanamide] | ≤ 1000 nM
4 | CN1CCC(CCNC(=O)COCc2ccc(-c3cc(NCCCN4CCCCC4)c4cnccc4n3)cc2)CC1 [N-(2-(1-methylpiperidin-4-yl)ethyl)-2-(4-(4-(3-(piperidin-1-yl)propylamino)-1,6-naphthyridin-2-yl)benzyloxy)acetamide] | ≤ 1000 nM
5 | CN1CCN(C(=O)c2cc3cc(-c4cc(NCc5ccc(CN6CCCCC6)cc5)c5cnccc5n4)ccc3n2C)CC1 [(1-methyl-5-(4-(4-(piperidin-1-ylmethyl)benzylamino)-1,6-naphthyridin-2-yl)-1H-indol-2-yl)(4-methylpiperazin-1-yl)methanone] | ≤ 1000 nM
6 | O=C(NCCCN1CCCCC1)c1ccc(-c2cc(NC3CCOCC3)c3cnccc3n2)cc1 [N-(3-(Piperidin-1-yl)propyl)-4-(4-((tetrahydro-2H-pyran-4-yl)amino)-1,6-naphthyridin-2-yl)benzamide] | 1000 to 20000 nM
7 | CN1CCC(NC(=O)c2ccc(-c3cc(NC4CCOCC4)c4cnccc4n3)cc2)CC1 [N-(1-Methylpiperidin-4-yl)-4-(4-((tetrahydro-2H-pyran-4-yl)amino)-1,6-naphthyridin-2-yl)benzamide] | ≤ 1000 nM
8 | CN1CCC(CNC(=O)C#Cc2ccc(-c3cc(NCCCN4CCCCC4)c4cnccc4n3)cc2)CC1 [N-((1-methylpiperidin-4-yl)methyl)-3-(4-(4-((3-(piperidin-1-yl)propyl)amino)-1,6-naphthyridin-2-yl)phenyl)propiolamide] | 1000 to 20000 nM
9 | CN(C)CCNC(=O)c1cc2ccc(-c3cc(NCCCN4CCCCC4)c4cnccc4n3)cc2[nH]1 [N-(2-(Dimethylamino)ethyl)-6-(4-(3-(piperidin-1-yl)propylamino)-1,6-naphthyridin-2-yl)-1H-indole-2-carboxamide] | 1000 to 20000 nM
10 | CN1CCC(NC(=O)c2nc3cc(-c4cc(NCCCN5CCCCC5)c5cnccc5n4)cnc3[nH]2)CC1 [N-(1-Methylpiperidin-4-yl)-6-(4-(3-(piperidin-1-yl)propylamino)-1,6-naphthyridin-2-yl)-3H-imidazo[4,5-b]pyridine-2-carboxamide] | ≤ 1000 nM
11 | O=C(/C=C/c1ccc(-c2cc(NCCCN3CCCCC3)c3cnccc3n2)cc1)NCCCN1CCCCC1 [(E)-N-(3-(Piperidin-1-yl)propyl)-3-(4-(4-(3-(piperidin-1-yl)propylamino)-1,6-naphthyridin-2-yl)phenyl)acrylamide] | ≤ 1000 nM
12 | CCN(CC)C(=O)c1ccc(-c2cc(NCCCN3CCS(=O)(=O)CC3)c3cnccc3n2)cc1 [4-(4-((3-(1,1-Dioxidothiomorpholino)propyl)amino)-1,6-naphthyridin-2-yl)-N,N-diethylbenzamide] | 1000 to 20000 nM
13 | CCN(CC)C(=O)c1ccc(-c2cc(NCCN(C)C)c3cnccc3n2)cc1 [4-(4-((2-(Dimethylamino)ethyl)amino)-1,6-naphthyridin-2-yl)-N,N-diethylbenzamide] | 1000 to 20000 nM
14 | O=C(COCc1ccc(-c2cc(NCCCN3CCCCC3)c3cnccc3n2)cc1)NCC1CCNCC1 [2-(4-(4-(3-(piperidin-1-yl)propylamino)-1,6-naphthyridin-2-yl)benzyloxy)-N-(piperidin-4-ylmethyl)acetamide] | ≤ 1000 nM
15 | CCOC(=O)c1cc2cc(-c3cc(NCCCN4CCCCC4)c4cnccc4n3)ccc2n1C [ethyl 1-methyl-5-(4-((3-(piperidin-1-yl)propyl)amino)-1,6-naphthyridin-2-yl)-1H-indole-2-carboxylate] | ≤ 1000 nM
16 | CN(C)CCNC(=O)c1cc2cc(-c3cc(NCCCN4CCCCC4)c4cnccc4n3)ccc2n1C [N-(2-(dimethylamino)ethyl)-1-methyl-5-(4-((3-(piperidin-1-yl)propyl)amino)-1,6-naphthyridin-2-yl)-1H-indole-2-carboxamide] | ≤ 1000 nM
17 | O=C(c1nc2ccc(-c3cc(NCCCN4CCCCC4)c4cnccc4n3)cc2s1)N1CCOCC1 [Morpholino(6-(4-(3-(piperidin-1-yl)propylamino)-1,6-naphthyridin-2-yl)benzo[d]thiazol-2-yl)methanone] | 1000 to 20000 nM
18 | CCCNc1cc(-c2ccc3c(c2)cc(C(=O)NC2CCN(C)CC2)n3C)nc2ccncc12 [1-methyl-N-(1-methylpiperidin-4-yl)-5-(4-(propylamino)-1,6-naphthyridin-2-yl)-1H-indole-2-carboxamide] | ≤ 1000 nM

Row | SMILES | IC50
19 | O=C(NCCc1ccncc1)c1ccc(-c2cc(NCCCN3CCCCC3)c3cnccc3n2)cc1 [4-(4-((3-(piperidin-1-yl)propyl)amino)-1,6-naphthyridin-2-yl)-N-(2-(pyridin-4-yl)ethyl)benzamide] | ≤ 1000 nM
20 | CC(CCN1CCCCC1)Nc1cc(-c2ccc3c(c2)cc(C(=O)NC2CCN(C)CC2)n3C)nc2ccncc12 (centres unmarked) [1-Methyl-N-(1-methylpiperidin-4-yl)-5-(4-(4-(piperidin-1-yl)butan-2-ylamino)-1,6-naphthyridin-2-yl)-1H-indole-2-carboxamide] | 1000 to 20000 nM
21 | CN1CCC(Nc2cc(-c3ccc4c(c3)cc(C(=O)N3CCN(C)CC3)n4C)nc3ccncc23)CC1 [(1-Methyl-5-(4-((1-methylpiperidin-4-yl)amino)-1,6-naphthyridin-2-yl)-1H-indol-2-yl)(4-methylpiperazin-1-yl)methanone] | ≤ 1000 nM
22 | CN1CCC(NC(=O)c2ccc(-c3cc(NC4CCN(C)CC4)c4cnccc4n3)cc2)CC1 [N-(1-Methylpiperidin-4-yl)-4-(4-((1-methylpiperidin-4-yl)amino)-1,6-naphthyridin-2-yl)benzamide] | 1000 to 20000 nM
23 | CCN(CC)C(=O)c1ccc(-c2cc(NCCN3CCS(=O)(=O)CC3)c3cnccc3n2)cc1 [4-(4-((2-(1,1-Dioxidothiomorpholino)ethyl)amino)-1,6-naphthyridin-2-yl)-N,N-diethylbenzamide] | 1000 to 20000 nM
24 | CCN(CC)C(=O)c1cc2ccc(-c3cc(NCCCN4CCCCC4)c4cnccc4n3)cc2s1 [N,N-diethyl-6-(4-(3-(piperidin-1-yl)propylamino)-1,6-naphthyridin-2-yl)benzo[b]thiophene-2-carboxamide] | ≤ 1000 nM
25 | Cc1cncc2c(NCCCN3CCCCC3)cc(-c3ccc(C(=O)NCCCN4CCCCC4)cc3)nc12 [4-(8-Methyl-4-((3-(piperidin-1-yl)propyl)amino)-1,6-naphthyridin-2-yl)-N-(3-(piperidin-1-yl)propyl)benzamide] | ≥ 20000 nM
26 | O=C(c1nc2cc(-c3cc(NCCCN4CCCCC4)c4cnccc4n3)ccc2[nH]1)N1CCNCC1 | ≤ 1000 nM
27 | O=C(c1cc2ccc(-c3cc(NCCCN4CCCCC4)c4cnccc4n3)cc2s1)N1CCNCC1 [Piperazin-1-yl(6-(4-(3-(piperidin-1-yl)propylamino)-1,6-naphthyridin-2-yl)benzo[b]thiophen-2-yl)methanone] | ≤ 1000 nM
28 | Cn1c(C(=O)NC2CCS(=O)(=O)CC2)cc2cc(-c3cc(NCCCN4CCCCC4)c4cnccc4n3)ccc21 [N-(1,1-dioxidotetrahydro-2H-thiopyran-4-yl)-1-methyl-5-(4-((3-(piperidin-1-yl)propyl)amino)-1,6-naphthyridin-2-yl)-1H-indole-2-carboxamide] | ≤ 1000 nM
29 | N#Cc1c(-c2cc(NCCCN3CCCCC3)c3cnccc3n2)ccc2[nH]c(C(=O)NC3CCNCC3)nc12 [4-cyano-5-(4-((3-(piperidin-1-yl)propyl)amino)-1,6-naphthyridin-2-yl)-N-(piperidin-4-yl)-1H-benzo[d]imidazole-2-carboxamide] | 1000 to 20000 nM
30 | CN(C)CCNC(=O)c1cc2ccc(-c3cc(NCCCN4CCCCC4)c4cnccc4n3)cc2s1 [N-(2-(dimethylamino)ethyl)-6-(4-(3-(piperidin-1-yl)propylamino)-1,6-naphthyridin-2-yl)benzo[b]thiophene-2-carboxamide] | 1000 to 20000 nM
31 | CCN1CCN(C(=O)c2cc3ccc(-c4cc(NCCCN5CCCCC5)c5cnccc5n4)cc3[nH]2)CC1 [(4-Ethylpiperazin-1-yl)(6-(4-(3-(piperidin-1-yl)propylamino)-1,6-naphthyridin-2-yl)-1H-indol-2-yl)methanone] | ≤ 1000 nM
32 | COC(=O)c1ccc(-c2cc(NCCCN3CCCCC3)c3cnccc3n2)c(C(N)=O)c1 [methyl 3-carbamoyl-4-(4-((3-(piperidin-1-yl)propyl)amino)-1,6-naphthyridin-2-yl)benzoate] | 1000 to 20000 nM
33 | Cn1c(C(=O)NC2CCOCC2)cc2cc(-c3cc(NCCCN4CCCCC4)c4cnccc4n3)ccc21 [1-methyl-5-(4-((3-(piperidin-1-yl)propyl)amino)-1,6-naphthyridin-2-yl)-N-(tetrahydro-2H-pyran-4-yl)-1H-indole-2-carboxamide] | ≤ 1000 nM
34 | CCN(CC)C(=O)c1ccc(-c2cc(Nc3ccc(N(C)C)cc3)c3cnccc3n2)cc1 [4-(4-(4-(Dimethylamino)phenylamino)-1,6-naphthyridin-2-yl)-N,N-diethylbenzamide] | 1000 to 20000 nM
35 | O=C(NC1CCNCC1)c1nc2cc(-c3cc(NCCCN4CCCCC4)c4cnccc4n3)ccc2[nH]1 [5-(4-((3-(piperidin-1-yl)propyl)amino)-1,6-naphthyridin-2-yl)-N-(piperidin-4-yl)-1H-benzo[d]imidazole-2-carboxamide] | ≤ 1000 nM
